Holding throughout (assay type): cell-based
The subject of one test is HL60. As to the kind of experiment: Apoptosis assessment (annexin V/PI flow cytometry). On the procedure:
(§1) a total of 1×10^6 cellsderived from patients or cell lines were resuspended in 1 mL culture medium and incubated with the indicated dosages of OTX015 prepared freshly from 1 mM stock solution in DMSO. Control cells were incubated with the corresponding amount of dimethyl sulfoxide (DMSO 0.2-1%) to exclude toxicity of the excipient. Apoptotic cells were detected by cytofluorometric analysis using a FACScan (Becton Dickinson, Mountain View, USA). Cells were stained with propidium iodide (PI; 5 μg/mL; Becton Dickinson) and concomitantly for 15 minutes at RT with annexin-V-FITC (Becton Dickinson) according to the manufacturer's instructions to determine outer membrane phosphatidyl serine exposure. Data were analyzed with the Flowjo (Tree Star Inc., Ashland, USA) flow cytometry software.
(In general: Flow cytometry measures light scatter and fluorescence of single cells or particles in a stream.)

For the next test, the system named is Jurkat. As to the kind of experiment: Apoptosis assessment (annexin V/PI flow cytometry). On the procedure:
as §1

In another test the test system is K562. Briefly: Apoptosis assessment (annexin V/PI flow cytometry). On the procedure:
as §1

For the next test, the system named is KG1a. Briefly: Apoptosis assessment (annexin V/PI flow cytometry). The settings on record: 96 hours at 10 nM. The procedure: as §1
Another test deals with KG1. Briefly: Apoptosis assessment (annexin V/PI flow cytometry). The procedure: as §1
The subject of a further test is RS4-11. As to the kind of experiment: Apoptosis assessment (annexin V/PI flow cytometry). The settings on record: RS4-11, 96 hours at 10 nM. The procedure: as §1
The next test relates to TOM-1. Briefly: Apoptosis assessment (annexin V/PI flow cytometry). The following applies: TOM-1, 96 hours at 10 nM. The procedure:
as §1

A further test has as its system c-MYC. Briefly: QT-PCR of c-MYC in leukemia cell lines. The settings on record: all cell lines, 250 nM and 500 nM, 48 h. On the procedure: The oncogene c-MYC is thought to be activated by BRD4 and is crucial for leukemia maintenance. […] We determined basal gene expression levels of c-MYC in different leukemia cell lines showing heterogeneous results without clear correlation to biologic effects of Compound (1-1) in regard to MTT, apoptosis or cell cycle effects (FIGS. 42A and 42B).
The total RNA obtained after extraction with TRIZOL (Invitrogen, Grand Island, USA) were titrated to 1 μg/uL and stored at −80° C. The complementary DNA (cDNA) was synthesized from 1 μg RNA. The RQ-PCR reactions (BRD2, BRD3, BRD4, c-MYC and ABL) were performed in a volume of 25 ul from a tenth of the cDNA (equivalent to 100 ng of RNA) on a thermocycler ABI7900HT in standard mode (1 cycle of 2 minutes at 50° C.-10 minutes at 95° C. followed by 50 cycles of 15 seconds at 95° C.-1 minute at 60° C.).

Test [1] relates to BRD4, BRD3 and c-MYC in RS4-11. Briefly: Immunoblot (protein level) in RS4-11. The settings on record: RS4-11, 500 nM. On the procedure: FIGS. 43A-43L illustrate effects of OTX015 at the protein level for BRD 4, BRD2 and BRD 3 as well as c-MYC. […] AML cell lines HL60, K562 (FIGS. 43A-43C; FIG. 43D-43F) and ALL cell lines Jurkat and RS4-11 (FIG. 43G-43I; FIG. 4JD-43L) were treated with OTX015 at 500 nM and compared to controls exposed to according DMSO. At indicated time-points proteins were extracted and immunoblotted with BRD4, BRD3, BRD2 or c-MYC antibodies after gel electrophoresis. […] One representative experiment out of three is shown.
The membranes were blocked with LiCor blocking buffer (LiCor, Lincoln, Nebr., USA) and incubated with the respective primary antibody: anti-BRD4 (Epitomics 5716-1, Burlingame, USA), anti-BRD3 (ab56342, AbCam, UK), anti-BRD2 (ab37633, AbCam, UK), anti c-MYC (sc-764 (N262), Santa Cruz, USA) and anti-GAPDH (Invitrogen 398600, Grand Island, USA). Blots were stained with either goat anti-rabbit InfraRedDye 680RD or goat anti-mouse InfraRedDye 800CWsecondary antibody (LiCor). Membranes were imaged using a LiCor Odyssey scanner. Boxes were manually placed around each band of interest, which returned near-infrared fluorescent values of raw intensity with intra-lane background subtracted using Odyssey 3.0 analytical software (LiCor).
Background: Immunoblotting shows a protein as a band on a membrane.

Test [2] relates to c-MYC in BM cells of patient 5. As to the kind of experiment: Immunoblot of c-MYC in patient bone marrow cells treated ex vivo. The following applies: BM cells of patient 5, 250 and 500 nM, 72 h. On the procedure:
FIGS. 45A-45E illustrate modulation of c-MYC at the protein level in a patient sample. Protein extracts were obtained from bone marrow (BM) cells of patient 5 (FIG. 44D; FIGS. 45A-45D) upon ex vivo treatment with 250 and 500 nM of OTX015 respectively. […] Bone marrow cells from patient 5 were treated with OTX015 at 250 nM and 500 nM and compared to controls exposed to according concentrations with DMSO. Proteins were extracted at 72 h and immunoblotted with appropriate c-MYC antibodies after gel electrophoresis. […] Expression level of cMYC relative to ABL were realised by RQ-PCR at three time points 24, 48 and 72 h (FIG. 45B). Results in FIG. 45B are shown with means±SD from duplicates.
The membranes were blocked with LiCor blocking buffer (LiCor, Lincoln, Nebr., USA) and incubated with the respective primary antibody: anti-BRD4 (Epitomics 5716-1, Burlingame, USA), anti-BRD3 (ab56342, AbCam, UK), anti-BRD2 (ab37633, AbCam, UK), anti c-MYC (sc-764 (N262), Santa Cruz, USA) and anti-GAPDH (Invitrogen 398600, Grand Island, USA). Blots were stained with either goat anti-rabbit InfraRedDye 680RD or goat anti-mouse InfraRedDye 800CWsecondary antibody (LiCor). Membranes were imaged using a LiCor Odyssey scanner. […]

Turning to `Cc1sc2c(c1C)C(c1ccc(Cl)cc1)=N[C@@H](CC(=O)Nc1ccc(O)cc1)c1nnc(C)n1-2` [Compound (1-1), 2-[(6S)-4-(4-chlorophenyl)-2,3,9-trimethyl-6H-thienol[3,2-f]-[1,2,4]triazolo[4,3-a][1,4]diazepin-6-yl]-N-(4-hydroxyphenyl)acetamide dihydrate], the “delayed apoptosis after drug washout” value is recorded as “significant delayed apoptosis” in the test on HL60 (HL60, 6 hours exposure, read at 96 hours); “significant delayed apoptosis” in the test with Jurkat (6 hours exposure, read at 96 hours); “but not in the less sensitive K562” in the test on K562 (K562, 6 hours exposure, read at 96 hours). Also, the apoptosis with HL60 (HL60, 96 hours at 10 nM) is over 90%; with Jurkat (96 hours at 10 nM), over 90%; in the test with K562 (K562, 96 hours at 10 nM) it was 20%; in the test with KG1a, 45%; in the test with KG1 (KG1, 96 hours at 10 nM), over 90%; with RS4-11 it was 30%. Further, the apoptosis with TOM-1 was 70%. In the test on K562 (K562, at 24 hours), the apoptotic cells worked out at 20%. Also, the “induction of apoptosis at lower dose” value in the test with KG1 (KG1, 10 nM, 72 hours) is listed as “induced apoptosis after prolonged incubation”. Also, the c-MYC gene expression result with c-MYC is recorded as “c-MYC downregulation was observed in all cell lines”. The “BRD4, BRD3 and c-MYC protein level” value in [1] is “remained unaffected”. Besides, in test [2], the c-MYC protein level result was “downregulation of c-MYC”.
